Measured values as given in patent US12617762B2, “Carboxy derivatives with antiinflamatory properties” (Sitryx Therapeutics Limited, priority 2019, dated 2026).
Like-named read-outs stand apart in the source and are kept apart here.

Assays:
[1] = tested on: IL-1β cytokine output from THP-1s; assay: THP-1 AlphaLISA IL-1β cytokine inhibition assay; assay type: cell-based; details: for IC50: Homo sapiens, THP-1, differentiated THP-1 cells, LPS then nigericin; for IL-1β lowering, result in words: THP-1 IL-1β assay
Summary of the method: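 THP-1 cells differentiated with PMA for 72 h, pre-incubated with compound 30 min, then LPS-primed 24 h and Nigericin-stimulated 1 h (37° C./5% CO2). Supernatant IL-1β measured by AlphaLISA; percentage inhibition normalised to +LPS (high) and −LPS (low) plate controls.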

[2] = tested on: NRF2 (nuclear factor erythroid 2-related factor 2); assay: NRF2 +/-GSH activation assay (DiscoverX PathHunter NRF2 translocation kit, U2OS cells); assay type: cell-based; details: for NRF2 activation +GSH Emax / NRF2 activation −GSH Emax: normalised to DMF high control
Summary of the method: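 U2OS PathHunter eXpress cells, 24 h post-plating, treated with compound ±GSH (+GSH arm: 30 min compound–GSH pre-incubation, 6 mM working GSH), then 6 h at 37 °C. NRF2 nuclear translocation read by enzyme-fragment-complementation chemiluminescence; % activation normalised to DMF high and untreated low controls.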

[3] = Hepatocyte stability assay, mouse; assay type: in vitro ADME; details: mouse, hepatocytes; for hepatocyte CLint at 10 μM: Hepatocyte stability Clint; for half-life at 10 μM: Hepatocyte stability T½
Description: (§1) Defrosted cryo-preserved hepatocytes (viability >70%) were used to determine the metabolic stability of a compound via calculation of intrinsic clearance (CIint; a measure of the removal of a compound from the liver in the absence of blood flow and cell binding). Clearance data are particularly important for in vitro work as they can be used in combination with in vivo data to predict the half-life and oral bioavailability of a drug.
(§2) The metabolic stability in hepatocytes assay involves a time-dependent reaction using both positive and negative controls. The cells were pre-incubated at 37° C. then spiked with test compound (and positive control); samples were taken at pre-determined time intervals and were analysed to monitor the change in concentration of the initial drug compound over 60 minutes. A buffer incubation reaction (with no hepatocytes present) acted as a negative control and two cocktail solutions, containing compounds with known high and low clearance values (verapamil/7-hydroxycoumarin and propranolol/diltiazem), acted as positive controls. • 1. The assay was run with a cell concentration of 0.5×10^6 cells/mL in Leibovitz buffer. • 2. All compounds and controls were run in duplicate. • 3. Compound concentration was 10 μM. • 4. All compounds and controls were incubated with both cells and buffer to show turnover was due to hepatic metabolism. • 5. All wells on the incubation plate had 326.7 μL of either cells or buffer added. • 6. Prior to assay, cell and buffer-only incubation plates were preincubated for 10 mins at 37° C. • 7. The assay was initiated by adding compounds, 3.3 μL of 1 mM in 10% DMSO—90% Buffer; final DMSO concentration was 0.1%. • 8. Samples were taken at regular timepoints (0, 5, 10, 20, 40, 60 min) until 60 mins. • 9. Sample volume was 40 μL and was added to 160 μL of crash solvent (acetonitrile with internal standard) and stored on ice. • 10. At the end of the assay, the crash plates were centrifuged at 3500 rpm for 20 mins at 4° C. • 11. 80 μL of clear supernatant was removed and mixed with 80 μL of deionised water before being analysed by LC-MS/MS.
(§3) Raw LC-MS/MS data was exported to, and analysed in, Microsoft Excel for determination of intrinsic clearance. The percentage remaining of a compound was monitored using the peak area of the initial concentration as 100%. Intrinsic clearance and half-life values were calculated using a graph of the natural log of percentage remaining versus the time of reaction in minutes.

[4] = Hepatocyte stability assay, human; assay type: in vitro ADME; details: human, hepatocytes; for hepatocyte CLint at 10 μM: Hepatocyte stability Clint; for half-life at 10 μM: Hepatocyte stability T½
Description: as §1, §2, §3

[5] = +GSH, 30 minute compound-GSH pre-incubation, read-out: NRF2 activation +GSH EC50
[6] = −GSH, U2OS PathHunter cells, 6 hours compound treatment, read-out: NRF2 activation −GSH EC50

SMILES	IC50 [1] [µM]	EC50 [2, 5] [µM]	NRF2 activation +GSH Emax ([2]; +GSH) [%]	EC50 [2, 6] [µM]	NRF2 activation −GSH Emax ([2]; −GSH) [%]	hepatocyte CLint at 10 μM [3] [µL/min/1e6 cells]	half-life at 10 μM [3] [min]	hepatocyte CLint at 10 μM [4] [µL/min/1e6 cells]	half-life at 10 μM [4] [min]	IL-1β lowering, result in words [1]
C=C(Cc1nc(Cc2ccc(OC(F)(F)F)cc2)no1)C(=O)O [Example 46, 2-((3-(4-(trifluoromethoxy)benzyl)-1,2,4-oxadiazol-5-yl)methyl)acrylic acid]	41.9	36.2	51	31.1	106	17	76	< 3	> 447	
C=C(Cc1nc(C2(c3ccc(Cl)cc3)CCC2)no1)C(=O)O [Example 25, 2-((3-(1-(4-chlorophenyl)cyclobutyl)-1,2,4-oxadiazol-5-yl)methyl)acrylic acid]	64.1	> 100	31	> 100	32	17	90	12	104	
C=C(Cc1nc(-c2ccc(Cl)cc2)no1)C(=O)O [Example 7, 2-((3-(4-chlorophenyl)-1,2,4-oxadiazol-5-yl)methyl)acrylic acid]	> 100	44.5	89	39.7	113	28	49	< 6	> 320	not effective
C=C(Cc1nc(CCc2ccc(CCC)cc2)no1)C(=O)O [Example 36, 2-((3-(4-propylphenethyl)-1,2,4-oxadiazol-5-yl)methyl)acrylic acid]	37.5	14.2	181	10.1	216	249	7	23	61	
C=C(Cc1nc(Cc2ccc(C(C)(C)C)cc2)no1)C(=O)O [Example 15, 2-((3-(4-(tert-butyl)benzyl)-1,2,4-oxadiazol-5-yl)methyl)acrylic acid]	23.8	> 100	33	57.1	41	31	35	7.5	167	
C=C(Cc1nc(Cc2ccc(CCCCC)cc2)no1)C(=O)O [Example 28, 2-((3-(4-pentylbenzyl)-1,2,4-oxadiazol-5-yl)methyl)acrylic acid]	7.7	4	201	3	264	> 460	< 3	103	12	
C=C(Cc1nc(Cc2ccc(C(F)(F)F)cc2)no1)C(=O)O [Example 42, 2-((3-(4-(trifluoromethyl)benzyl)-1,2,4-oxadiazol-5-yl)methyl)acrylic acid]	27	> 100	8	> 100	63	11	118	< 3	> 460	
C=C(Cc1nc(-c2ccc(CCCC)cc2)no1)C(=O)O [Example 18, 2-((3-(4-butylphenyl)-1,2,4-oxadiazol-5-yl)methyl)acrylic acid]	15.3	3.8	159	3.5	207	> 460	< 3	159	11	
C=C(Cc1nc(Cc2cc(Cl)cc(Cl)c2)no1)C(=O)O [Example 16, 2-((3-(3,5-dichlorobenzyl)-1,2,4-oxadiazol-5-yl)methyl)acrylic acid]	45.6	23.6	149	19.4	180	29	45	< 4	> 362	
C=C(Cc1nc(C2(c3ccc(OC)cc3)CC2)no1)C(=O)O [Example 45, 2-((3-(1-(4-methoxyphenyl)cyclopropyl)-1,2,4-oxadiazol-5-yl)methyl)acrylic acid]	38.8	> 100	9	> 100	55	33	49	8	178	
C=C(Cc1nc(C2(c3cccc(Cl)c3)CC2)no1)C(=O)O [Example 21, 2-((3-(1-(3-chlorophenyl)cyclopropyl)-1,2,4-oxadiazol-5-yl)methyl)acrylic acid]	> 100	44	81	31.7	125	62	28	21	83	not effective
C=C(Cc1nc(-c2ccc(CCCCC)cc2)no1)C(=O)O [Example 23, 2-((3-(4-pentylphenyl)-1,2,4-oxadiazol-5-yl)methyl)acrylic acid]	4.6	2.2	162	1.6	209	> 460	< 3	321	5	
